# According to PMC9936538, “Structure–Activity Relationship of N-Ethyl-Hexedrone Analogues: Role of the α-Carbon Side-Chain Length in the Mechanism of Action, Cytotoxicity, and Behavioral Effects in Mice” (ACS Chemical Neuroscience, 2023):
# Legend:
# hSERT [1] = target: T1, hSERT (Homo sapiens, UniProt P31645); assay: Monoamine uptake inhibition, [3H]5-HT uptake at hSERT in transfected HEK293 cells; format: cell-based
# T1 construct: expressed in transfected cells; host or cells: HEK293
# Description: (§1) Human embryonic kidney cells (HEK293) stably transfected with the human DAT and SERT were used for both the uptake inhibition and transporter binding assays.[6] Cells were cultured in DMEM supplemented with heat-inactivated 10% fetal bovine serum (FBS), […], and 100 U/mL penicillin at 37 °C in a 5% CO2 humidified atmosphere. Geneticin (G418; 50 μg/mL) was added to maintain the selection process. Upon approximately 80% confluence, cells were washed with 5 mL of phosphate-buffered saline (PBS) and 1 mL of trypsin/EDTA was added. After 3 min, 9 mL of DMEM was added to stop cell trypsinization. If necessary, centrifugation was performed to pellet the cells. Cells were then resuspended, counted, and seeded onto poly-D-lysine coated (24 h/prior to the experiment) 96-well plates at a density of 0.36 million cells per well for the uptake inhibition assays.
# (§2) Assays were performed as previously described.[8] On the test day, the medium was removed from the cell culture 96-well plates and immediately replaced with 200 μL of Krebs-HEPES-buffer (KHB; 10 mM HEPES, 120 mM NaCl, 3 mM KCl, 2 mM CaCl2·2H2O, 2 mM MgCl2·6H2O supplemented with 20 mM D-glucose; pH 7.3). To ensure equilibrated conditions, cells were incubated with different concentrations of the drugs in KHB at a final volume of 50 μL/well for 5 min (preincubation). The preincubation solution was removed, and cells were incubated with the tritiated compounds, 0.02 μM [^3H]MPP^+ for hDAT and 0.1 μM [^3H]5-HT for hSERT, together with various concentrations of the test drugs in KHB. The uptake incubation times were 3 min for hDAT and 1 min for hSERT. The reaction was stopped by rapid removal of the incubation solution and washout with ice-cold KHB. Cells were lysed with 1% sodium dodecyl sulfate, and lysates were subsequently transferred to vials containing scintillation fluid. Radioactivity was quantified with a beta-scintillation counter (PerkinElmer, Waltham, MA, USA). The uptake in the absence of the test drugs was normalized to 100%, and the uptake in the presence of various concentrations of cathinones was expressed as a percentage thereof. […] Four independent experiments carried out on triplicates were performed.
# (§3) For in vitro assays, data were normalized with 100% defined as the mean of the technical replicates in the control group and expressed as mean ± SEM. Nonlinear regression was used to fit the different competition curves. Data were plotted and best fitted to a sigmoidal dose–response curve from which an IC50 or LC50 value was obtained. Transporter ratios were calculated as (1/DAT IC50: 1/SERT IC50). […] The Cheng–Prusoff equation was used to calculate Ki (affinity): Ki = EC50/(1 + [radioligand concentration/Kd]).[65] The sample size for behavioral experiments was determined using GPower software. One-way or two-way ANOVA, and subsequent Tukey’s posthoc test, conducted only if F was significant, was used to determine the effects of cathinones on cytotoxicity, HLA, OF, and CPP experiments. The α error probability was set at 0.05 (p < 0.05). The exact size group for the behavioral experiments is shown in the corresponding figure legends. All statistic calculations were carried out using GraphPad Prism (GraphPad software, San Diego, CA, USA).
# Swiss CD-1 mice = assay: Horizontal locomotor activity (HLA) in mice; format: in vivo; settings: for HLA (total distance traveled in 60 min) vs saline / duration of the significant increase in locomotor activity: 3 mg/kg i.p.; for duration of the significant increase in locomotor activity: 5 min blocks; for shape of the dose response of HLA: 3, 10, 30 mg/kg i.p., ceiling at highest dose 30 mg/kg
# Description: Male Swiss CD-1 mice (Janvier, Le Genest, France) weighing 30–35 g (6–8 weeks old), housed in temperature-controlled conditions (22 ± 1 °C) under a 12 h light/dark cycle and with free access to food and drinking water (standard laboratory diet, Panlab SL, Barcelona, Spain), were randomly assigned to an experimental group. Efforts were made to minimize animal use and suffering.
# In the habituation phase, which lasted for two consecutive days, mice received an intraperitoneal (i.p.) saline injection and were immediately placed into a black Plexiglass OF arena (25 × 25 × 40 cm) under low-light conditions and white noise for 30 min. On the test day, the HLA was measured as described.[8] […] HLA was video-monitored for 1 h and a specific tracking software (Smart 3.0 Panlab, Barcelona, Spain) was used to measure their total traveled distance (in cm). The doses were chosen according to the psychostimulant effect induced by structurally related synthetic cathinones published in previous studies by our research group.[8]
# hDAT = target: T2, hDAT (Homo sapiens, UniProt Q01959); assay: Monoamine uptake inhibition, [3H]MPP+ uptake at hDAT in transfected HEK293 cells; format: cell-based; settings: for hDAT/hSERT inhibition ratio: 1/DAT IC50:1/SERT IC50, calculated with the original raw data
# T2 construct: expressed in transfected cells; host or cells: HEK293
# Description: as §1, §2, §3
# hSERT [2] = target: T1, hSERT; assay: Transporter binding, [3H]imipramine binding at hSERT (HEK293 membranes)
# Description: For membrane preparation, cells were harvested from 80 to 90% confluent dishes. HEK293 cells were washed with ice-cold phosphate-buffered saline (PBS), mechanically detached from the dish using a plastic scraper, and pelleted by centrifugation (400g for 10 min at 4 °C). The pellet was resuspended in HME buffer (20 mM HEPES NaOH, 1 mM EDTA, 2 mM MgCl2; pH 7.4), subjected to two freeze–thaw cycles in liquid nitrogen and homogenized through sonication at 4 °C. Membranes were then collected by centrifugation (40,000g for 30 min at 4 °C) and resuspended in an appropriate volume of HME buffer. The different membrane preparations aliquots were kept at −80 °C. Protein concentration was determined using the Bio-Rad Protein Reagent (Bio-Rad Laboratories, Hercules, CA).
# Binding assays were performed as described.[6] […] This nonspecific binding also allows subtracting from the total binding values of the binding to other components such as membrane lipids or microfiber filters. Incubation was performed for 1 h at 22 °C. Binding reactions are stopped by rapid filtration of the membranes through GF/C glass microfiber filters presoaked with 0.5% polyethyleneimine and rapid washing with ice-cold wash buffer (120 mM NaCl, 2 mM MgCl2, 10 mM Tris, and 100 μM ZnCl2 for hDAT, and […], 2 mM MgCl2, and 10 mM Tris, for hSERT). Thereafter, the filters are placed into vials, a scintillation cocktail is added and trapped radioactivity is quantified by liquid scintillation counting. Specific binding of each drug to the transporter was defined as the difference between total binding (binding buffer in absence of the drug) and nonspecific binding. For each cathinone, four independent experiments carried out on duplicates were performed.
# as §3
# T2 sequence (Q01959 whole entry): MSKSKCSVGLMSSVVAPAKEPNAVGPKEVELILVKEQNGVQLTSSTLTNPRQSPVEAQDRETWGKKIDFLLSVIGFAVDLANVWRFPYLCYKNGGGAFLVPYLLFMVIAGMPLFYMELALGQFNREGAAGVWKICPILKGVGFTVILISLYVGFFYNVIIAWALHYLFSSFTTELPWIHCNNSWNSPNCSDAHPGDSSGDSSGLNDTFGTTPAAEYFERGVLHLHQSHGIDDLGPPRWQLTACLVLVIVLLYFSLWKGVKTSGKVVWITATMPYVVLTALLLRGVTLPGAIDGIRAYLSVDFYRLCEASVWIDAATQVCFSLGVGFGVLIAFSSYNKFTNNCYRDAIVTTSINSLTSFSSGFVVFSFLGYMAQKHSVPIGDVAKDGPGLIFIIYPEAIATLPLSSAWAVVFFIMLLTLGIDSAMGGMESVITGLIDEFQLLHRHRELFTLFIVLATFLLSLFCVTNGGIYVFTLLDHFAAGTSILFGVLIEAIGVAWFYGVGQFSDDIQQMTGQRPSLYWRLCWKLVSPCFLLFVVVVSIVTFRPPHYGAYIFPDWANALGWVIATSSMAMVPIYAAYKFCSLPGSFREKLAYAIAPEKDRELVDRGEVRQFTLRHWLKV
# T1 sequence (P31645 whole entry): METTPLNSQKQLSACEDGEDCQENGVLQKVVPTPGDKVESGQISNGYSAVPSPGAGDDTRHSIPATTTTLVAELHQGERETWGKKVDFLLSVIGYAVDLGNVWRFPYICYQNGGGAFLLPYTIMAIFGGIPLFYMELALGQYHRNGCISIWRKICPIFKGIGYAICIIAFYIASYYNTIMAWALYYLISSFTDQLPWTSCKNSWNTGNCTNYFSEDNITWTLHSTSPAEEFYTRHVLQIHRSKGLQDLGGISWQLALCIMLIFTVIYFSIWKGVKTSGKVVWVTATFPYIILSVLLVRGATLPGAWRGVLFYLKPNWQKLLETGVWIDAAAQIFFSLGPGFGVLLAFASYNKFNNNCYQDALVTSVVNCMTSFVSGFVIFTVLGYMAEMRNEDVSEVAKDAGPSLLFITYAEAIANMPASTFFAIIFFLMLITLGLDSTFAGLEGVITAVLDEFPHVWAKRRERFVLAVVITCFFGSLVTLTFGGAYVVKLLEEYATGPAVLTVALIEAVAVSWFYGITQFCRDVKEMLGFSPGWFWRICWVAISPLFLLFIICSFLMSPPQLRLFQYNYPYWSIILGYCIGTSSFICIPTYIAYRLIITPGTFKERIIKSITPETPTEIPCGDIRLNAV
SMILES,IC50 (hSERT [1]),HLA (total distance traveled in 60 min) vs saline (Swiss CD-1 mice),duration of the significant increase in locomotor activity (Swiss CD-1 mice),shape of the dose response of HLA (Swiss CD-1 mice),IC50 (hDAT),hDAT/hSERT inhibition ratio (hDAT),Ki (hSERT [2]),reduction of potency inhibiting DA uptake compared with α-PVP (hDAT; vs α-PVP),potency in inhibiting DA uptake compared with NEC (hDAT; vs NEC),"time at which the locomotor effect ended (Swiss CD-1 mice; 10 mg/kg i.p., 60 min session)"
"CCNC(CC)C(=O)c1ccccc1 (centres unmarked) [NEB, N-ethyl-buphedrone]",51.2 µM,significant effect,15 min,ceiling effect,0.305 µM,168,90.1 µM,,,
"CCNC(C)C(=O)c1ccccc1 (centres unmarked) [NEC, N-ethyl-cathinone]",> 100 µM,,,dose–response relationship,1.44 µM,157,> 100 µM,~10 fold,,
"CCCCC(NCC)C(=O)c1ccccc1 (centres unmarked) [NEH, N-ethyl-hexedrone]",> 100 µM,,,dose–response relationship,0.073 µM,1457,35.9 µM,,~20 fold,
"CCCCCC(NCC)C(=O)c1ccccc1 (centres unmarked) [NEHP, N-ethyl-heptedrone]",> 100 µM,,,dose–response relationship,0.251 µM,426,40.6 µM,,,< 60 min
"CCCC(NCC)C(=O)c1ccccc1 (centres unmarked) [NEPD, N-ethyl-pentedrone]",76.4 µM,significant effect,40 min,ceiling effect,0.091 µM,844,24.6 µM,,,
